According to US20220213060A1, “Crystal Form of Quinazolinone Compound and Preparation Method Therefor” (Luoxin Healthcare Science and Technology Development …, priority 2019, published 2022):

Experiments:
[1] = Solid stability test of crystal form A (influencing factors and accelerated conditions, HPLC/XRPD); type: physicochemical
Description: 1.5 High Performance Liquid Chromatograph Method
Sample concentration: 0.5 mg/mL
The stability of the crystal form A of the compound represented by formula (I) was investigated according to the Guideline for Stability Testing of APIs and Formulations (Chinese Pharmacopoeia 2015 Edition IV General Rule 9001).
5 mg of the crystal form A of the compound represented by formula (I) was weighed separately, placed in a dry and clean glass bottle, in duplicate, spread into a thin layer, as a formal test sample, the two samples were placed under the test conditions of influencing factors (60° C., 92.5% relative humidity) and accelerated conditions (30° C./65% relative humidity, 40° C./75% relative humidity and 60° C./75% relative humidity), the samples were fully exposed, covered with aluminum foil and pierced with small holes. Sampling and analysis were performed on day 5, day 10, and 1 month. Samples placed under illumination (total illumination 1200000 Lux·hr, near ultraviolet 200 w·hr/m^2) were completely exposed at room temperature.

[2] = PK test of plasma on the last day of administration in the BT-474 xenograft study; type: in vivo, BALB/c nude mice; conditions: BT-474 tumor-bearing nude mice
Description: 0.5-1 hours after administration, the blood concentration reached the peak. The plasma exposure at the dose to play the effect was 69 300 nM*h.

[3] = Sprague Dawley (SD) rat absorption test (pharmacokinetics); type: in vivo, SD rats; conditions: for C0 / Tmax / bioavailability / Tmax at 7 days / Vd / AUC(0-t) / clearance / half-life / Cmax / half-life at 7 days: Sprague-Dawley, rat, plasma; for AUC0-last / t1/2: listed as crystal form A of the compound represented by formula (I); for Vd: read-out: Vdss
Description: SD rats were given the crystal form A of the compound represented by formula (I) by single or multiple oral gavage and single intravenous injection respectively, with 6 rats in each group, half male and half female. According to the results of pharmacodynamic and toxicological experiments, the single oral gavage doses were 3, 10 and 30 mg/kg respectively; the multiple doses were 10 mg/kg, once a day for 7 consecutive days; the single intravenous dose was 1 mg/kg. According to the drug plasma concentration-time curve, the pharmacokinetic parameters were calculated. In this experiment, SD rats were provided by Beijing Vital River Experimental Animal Technology Co., Ltd., and were divided into 4 groups (3/sex/group) according to their similar weight. The vehicle for the intravenous group was 5% HP-betaCD/5% Solutol aqueous solution (pH=8); the vehicle for the oral group was 0.5% MC/0.2% Tw80 aqueous solution. Plasma samples were collected by jugular vein puncture in rats.

[4] = Beagle dog absorption test (pharmacokinetics); type: in vivo, Beagle dogs
Description: Beagle dogs were given the crystal form A of the compound represented by formula (I) by single or multiple oral administration and single intravenous injection respectively, with 6 dogs in each group, half male and half female. The single oral doses were 0.3, land 3 mg/kg respectively; the multiple doses were 1 mg/kg, once a day for 7 consecutive days; the single intravenous dose was 0.3 mg/kg. According to the drug plasma concentration-time curve, the pharmacokinetic parameters were calculated, the results are shown in Table 15. The vehicle for drug preparation in group 1 was 5% HP-beta-CD, 5% solutol, pH=8 aqueous solution, the vehicles for groups 2, 3, 4 were 0.5% MC, 0.2% Tween80 aqueous solution.

[5] = 30° C., relative humidity 65%, open, 1 month
[6] = 30° C., relative humidity 65%, open, Day 10
[7] = 40° C., relative humidity 75%, open, 1 month
[8] = 40° C., relative humidity 75%, open, Day 10
[9] = 60° C., relative humidity 75%, open, 1 month
[10] = 60° C., relative humidity 75%, open, Day 10
[11] = High humidity (25° C./92.5% relative humidity, open), Day 5
[12] = High humidity (25° C./92.5% relative humidity, open), Day 10
[13] = High temperature (60° C., open), Day 5
[14] = High temperature (60° C., open), Day 10
[15] = Illumination (total illumination 1.2 × 106 Lux · hr/near ultraviolet 200 w · hr/m^2, open), Day 10
[16] = In the absence of light, Day 10
[17] = female SD rats, oral, 3 mg/kg, single
[18] = male SD rats, oral, 3 mg/kg, single
[19] = female SD rats, vein, 1 mg/kg, single
[20] = female, iv, 1 mg/kg, female SD rats, vein, single
[21] = female, po, 3 mg/kg, female SD rats, single
[22] = female, po, 10 mg/kg, female SD rats, oral, 10 mg/kg once a day, Day 7
[23] = female, po, 10 mg/kg, female SD rats, oral, 10 mg/kg, Day 1
[24] = female, po, 30 mg/kg, female SD rats, single
[25] = male SD rats, vein, 1 mg/kg, single
[26] = male, iv, 1 mg/kg, male SD rats, vein, single
[27] = male, po, 3 mg/kg, male SD rats, single
[28] = male, po, 10 mg/kg, male SD rats, oral, 10 mg/kg once a day, Day 7
[29] = male, po, 10 mg/kg, male SD rats, oral, 10 mg/kg, Day 1
[30] = male, po, 30 mg/kg, male SD rats, single
[31] = both sexes, beagle, dog, plasma, po, 0.3 mg/kg, male and female Beagle dogs, single
[32] = both sexes, dog, plasma, iv, male and female Beagle dogs, vein, 0.3 mg/kg, single
[33] = both sexes, dog, plasma, male and female Beagle dogs, oral, 0.3 mg/kg, single
[34] = both sexes, dog, plasma, male and female Beagle dogs, oral, 1 mg/kg once a day, day 7
[35] = both sexes, dog, plasma, male and female Beagle dogs, oral, 1 mg/kg, day 1
[36] = both sexes, dog, plasma, male and female Beagle dogs, oral, 3 mg/kg, single
[37] = male and female beagle dogs, oral, 1 mg/kg for 7 consecutive days, 7 days after the administration
[38] = male and female beagle dogs, oral, 1 mg/kg, 1 day after the administration

With `CNC(=O)[C@H](C)Cn1cnc2ccc(-c3cnc(OC)c(NS(=O)(=O)c4ccc(F)cc4F)c3)cc2c1=O` the “Content of the crystal form A of the compound represented by formula (I) (%)” value (“Content … (I) (%)” below) [1, 5] was 101.64%, the “Total impurity content (%)” value [1, 5] was 0.14% and the “Content … (I) (%)” value [1, 6] was 104.28%. For the same molecule, the “Total impurity content (%)” value [1, 6] was 0.14%, the “Content … (I) (%)” value [1, 7] was 103.86% and the “Total impurity content (%)” value [1, 7] was 0.16%. The “Content … (I) (%)” value [1, 8] was 103.79%, the “Total impurity content (%)” value [1, 8] was 0.15% and the “Content … (I) (%)” value [1, 9] was 103.30%. For the same molecule, the “Total impurity content (%)” value [1, 9] was 0.14%, the “Content … (I) (%)” value [1, 10] was 103.63% and the “Total impurity content (%)” value [1, 10] was 0.14%. The “Content … (I) (%)” value ([1]; Day 0) was 103.08%, the “Total impurity content (%)” value ([1]; Day 0) was 0.14% and the “Content … (I) (%)” value [1, 11] was 103.08%. For the same molecule, the “Total impurity content (%)” value [1, 11] was 0.14%, the “Content … (I) (%)” value [1, 12] was 103.95% and the “Total impurity content (%)” value [1, 12] was 0.14%. The “Content … (I) (%)” value [1, 13] was 104.39%, the “Total impurity content (%)” value [1, 13] was 0.14% and the “Content … (I) (%)” value [1, 14] was 102.00%. For the same molecule, the “Total impurity content (%)” value [1, 14] was 0.14%, the “Content … (I) (%)” value [1, 15] was 103.04% and the “Total impurity content (%)” value [1, 15] was 0.14%. For the same molecule, the “Content … (I) (%)” value [1, 16] was 102.57%, the “Total impurity content (%)” value [1, 16] was 0.15% and the “Stability (conclusion of the solid stability test)” value ([1]; all test conditions of Table 7) was “good stability”. For the same molecule, the “Plasma exposure at the dose to play the effect” value ([2]; oral 10 mg/kg, last day of administration) was 69 300 nM*h, the “Plasma exposure with the increase of administration dose” value ([2]; oral 10, 20, 40 mg/kg) was “increased linearly” and the “Time after administration at which the blood concentration reached the peak” value ([2]; oral, last day of administration) was 0.5 to 1 h. For the same molecule, the C0 ([3]; iv, female SD rats, vein, 1 mg/kg, single) was 14.2 µM, the C0 ([3]; iv, male SD rats, vein, 1 mg/kg, single) was 12.7 µM and the Tmax [3, 17] was 0.5 h. It also gave a bioavailability [3, 17] of 53.1%, a Tmax at 7 days ([3]; female SD rats, oral, 10 mg/kg once a day, Day 7) of 0.5 h and a Tmax ([3]; female SD rats, oral, 10 mg/kg, Day 1) of 0.667 ± 0.289 h. The Tmax ([3]; female SD rats, oral, 30 mg/kg, single) was 0.5 h, the Tmax [3, 18] was 0.417 ± 0.144 h and the bioavailability [3, 18] was 34.7%. The Tmax at 7 days ([3]; male SD rats, oral, 10 mg/kg once a day, Day 7) was 0.667 h, the Tmax ([3]; male SD rats, oral, 10 mg/kg, Day 1) was 0.5 h and the Tmax ([3]; male SD rats, oral, 30 mg/kg, single) was 0.667 ± 0.289 h. The “AUC0-last” value [3, 19] was 17.4 µM·h, the “t1/2” value [3, 19] was 3.26 h and the Vd ([3]; female, iv, 1 mg/kg, female SD rats, vein, 1 mg/kg, single) was 0.257 ± 0.0227 L/kg. The AUC(0-t) [3, 20] was 9.89 ± 1.41 µM·h, the clearance [3, 20] was 3.12 ± 0.431 mL/min/kg and the half-life [3, 20] was 1.63 ± 0.809 h. For the same molecule, the AUC(0-t) [3, 21] was 27.7 ± 8.72 µM·h, the Cmax [3, 21] was 6.39 ± 1.71 µM and the half-life [3, 21] was 2.71 h. The AUC(0-t) [3, 22] was 86 ± 19.9 µM·h, the Cmax [3, 22] was 20.5 ± 4.6 µM and the half-life at 7 days [3, 22] was 3.74 h. The AUC(0-t) [3, 23] was 60.9 ± 10.9 µM·h, the Cmax [3, 23] was 12.1 ± 3.69 µM and the half-life [3, 23] was 2.92 h. It also gave an AUC(0-t) [3, 24] of 177 ± 48 µM·h, a Cmax [3, 24] of 39.1 µM and a half-life [3, 24] of 2.72 h. For the same molecule, the “AUC0-last” value [3, 25] was 9.89 µM·h, the “t1/2” value [3, 25] was 1.63 h and the Vd ([3]; male, iv, 1 mg/kg, male SD rats, vein, 1 mg/kg, single) was 0.265 ± 0.05 L/kg. It also gave an AUC(0-t) [3, 26] of 17.4 ± 4.79 µM·h, a clearance [3, 26] of 1.79 ± 0.457 mL/min/kg and a half-life [3, 26] of 3.26 ± 1.13 h. For the same molecule, the AUC(0-t) [3, 27] was 10.3 ± 4.6 µM·h, the Cmax [3, 27] was 4.77 ± 1.01 µM and the half-life [3, 27] was 2.26 h. For the same molecule, the AUC(0-t) [3, 28] was 48.5 ± 4.64 µM·h, the Cmax [3, 28] was 13.9 ± 1.61 µM and the half-life at 7 days [3, 28] was 3.95 h. For the same molecule, the AUC(0-t) [3, 29] was 23.7 ± 0.721 µM·h, the Cmax [3, 29] was 6.8 ± 0.583 µM and the half-life [3, 29] was 2.49 h. For the same molecule, the AUC(0-t) [3, 30] was 45.3 ± 10.9 µM·h, the Cmax [3, 30] was 14.5 ± 4.73 µM and the half-life [3, 30] was 2.61 h. It also gave an AUC(0-t) ([4]; both sexes, beagle, dog, plasma, iv, 0.3 mg/kg, male and female Beagle dogs, vein, single) of 1.47 ± 0.353 µM·h, an AUC(0-t) [4, 31] of 1.29 ± 0.715 µM·h and a bioavailability [4, 31] of 87.8%. For the same molecule, the AUC(0-t) ([4]; both sexes, beagle, dog, plasma, po, 1 mg/kg, male and female Beagle dogs, oral, 1 mg/kg once a day, day 7) was 5.88 µM·h, the AUC(0-t) ([4]; both sexes, beagle, dog, plasma, po, 1 mg/kg, male and female Beagle dogs, oral, 1 mg/kg, day 1) was 4.98 ± 0.946 µM·h and the AUC(0-t) ([4]; both sexes, beagle, dog, plasma, po, 3 mg/kg, male and female Beagle dogs, single) was 14.8 ± 2.51 µM·h. For the same molecule, the C0 [4, 32] was 0.512 µM, the clearance [4, 32] was 6.18 ± 1.49 mL/min/kg and the half-life [4, 32] was 6.32 ± 1.62 h. It also gave a Vd ([4]; both sexes, dog, plasma, iv, male and female Beagle dogs, vein, 0.3 mg/kg, single, read-out: Vdss) of 2.47 ± 0.391 L/kg, a Tmax [4, 33] of 2 ± 1.1 h and a half-life [4, 33] of 6.92 ± 3.16 h. The Cmax ([4]; both sexes, dog, plasma, male and female Beagle dogs, oral, 0.3 mg/kg, single, read-out: Cmax) was 0.158 ± 0.0684 µM, the Cmax at 7 days [4, 34] was 0.85 µM and the Tmax at 7 days [4, 34] was 1.33 h. The half-life at 7 days [4, 34] was 5.18 ± 0.487 h, the Tmax [4, 35] was 1.67 ± 0.516 h and the half-life [4, 35] was 5 ± 1.44 h. For the same molecule, the Cmax ([4]; both sexes, dog, plasma, male and female Beagle dogs, oral, 1 mg/kg, day 1, read-out: Cmax) was 0.656 ± 0.0307 µM, the Tmax [4, 36] was 3.08 ± 1.5 h and the half-life [4, 36] was 6.55 ± 1.76 h. For the same molecule, the Cmax ([4]; both sexes, dog, plasma, male and female Beagle dogs, oral, 3 mg/kg, single, read-out: Cmax) was 1.88 ± 0.274 µM, the AUC0-last [4, 37] was 5.88 ± 0.697 µM·h and the Cmax [4, 37] was 850±106 nm. The AUC0-last [4, 38] was 4.98 ± 0.946 µM·h and the Cmax [4, 38] was 656±30.7 nm.
